These results are taken from patent US20240238367A1, “COMPOUNDS FOR TREATING CONDITIONS RELATED TO PCSK9 ACTIVITY” (MERCK SHARP & DOHME LLC, priority 2021, published 2024).

Read-outs that look alike come from different tables or passages of the source.

Data set [1] concerns the target T1, free PCSK9 (Homo sapiens, UniProt Q8NBP7).
T1 construct: reduction in plasma levels of free PCSK9 protein; from tissue; host or cells: plasma of healthy human volunteers (in vivo, endogenous)
Briefly: single dose study: reduction of free plasma PCSK9 from baseline (target engagement). Type of data set: in vivo.

A short description of data set [2]: single dose study: safety and tolerability. The source says:
(§1) Evaluation of pharmacokinetics, pharmacodynamics (reduction of free PCSK9 from baseline) and safety and tolerability of single doses of the compound of formula (I) were studied in normal healthy male volunteers aged 18-50. […] Additionally, this trial examined the effect of permeation enhancer dose on PK, the effect of food on PK, and the effect of various capsule formulations on PK. The pharmacodynamic endpoint measured in this study was target engagement (% change in free PCSK9).
(§2) The capsules were over-encapsulated with enteric capsules (HPMC Vcaps® Enteric, Capsugel®, Lonza).

The conditions of data set [3]: nonhuman primates; subcutaneous dosing plus oral arms; up to/including highest doses administered.
For data set [4] the following is noted: rats; co-administration with permeation enhancer (Labrasol, sodium caprate).
Data set [5] concerns the target human PCSK9 (Homo sapiens, UniProt Q8NBP7).
The subject of data set [6] is LDL-C. Briefly: multiple dose study: LDL-C reduction in participants on statin background therapy.
Description: (§3) Standard takeaway meals were provided to participants to consume no less than 30 minutes after receiving their once daily dose. In addition to standard safety monitoring, including vital signs, ECG and laboratory safety tests, plasma lipids (total cholesterol, LDL-C, HDL-C and TG) were measured. LDL-C was monitored as part of the safety labs.
Blood LDL-cholesterol levels were measured using standard clinical laboratory testing procedures predose and on day 3, 7, 14, 15 and 21 after dosing.
Data set [7] has as its system LDL-C. The settings on record: hard gelatin capsule, 5 mg plus 180 mg sodium caprate, participants taking statins.
For data set [8] the following is noted: non-human primates; co-administration with permeation enhancer (Labrasol, sodium caprate).
The nature of data set [9]: stability of amorphous salt forms, impurity levels (FIG. 5). Type of data set: physicochemical. The note with it: chloride salt made with HCl acidification step, risk of excess HCl.
Description in data set [10]: as §1, §2
For data set [11] the following is noted: rats; subcutaneous dosing plus oral arms; up to/including highest doses administered.
For data set [12] the following is noted: once daily for 14 days.
Description: as §3
Data set [13] concerns LDL-C. The settings on record: phase 3 lipid trials, N Engl J Med 2020; cited from earlier work.
For data set [14], the system named is LDL-C. The note with it: ODYSSEY, N Engl J Med 2018; cited from earlier work.
Data set [15] concerns LDL-C. The note with it: FOURIER, N Engl J Med 2017; cited from earlier work.
Where [16] appears, read: Panel A 200 mg no PE (permeation enhancer).
Where [17] appears, read: Panel B 120 mg with 720 mg Labrasol.
Where [18] appears, read: Panel C 40 mg with 720 mg Na Caprate.
[19] abbreviates: Panel C 100 mg with 1800 mg Na caprate.
[20] abbreviates: single oral doses 10 to 300 mg, healthy male volunteers.

T1 sequence (Q8NBP7 153-692): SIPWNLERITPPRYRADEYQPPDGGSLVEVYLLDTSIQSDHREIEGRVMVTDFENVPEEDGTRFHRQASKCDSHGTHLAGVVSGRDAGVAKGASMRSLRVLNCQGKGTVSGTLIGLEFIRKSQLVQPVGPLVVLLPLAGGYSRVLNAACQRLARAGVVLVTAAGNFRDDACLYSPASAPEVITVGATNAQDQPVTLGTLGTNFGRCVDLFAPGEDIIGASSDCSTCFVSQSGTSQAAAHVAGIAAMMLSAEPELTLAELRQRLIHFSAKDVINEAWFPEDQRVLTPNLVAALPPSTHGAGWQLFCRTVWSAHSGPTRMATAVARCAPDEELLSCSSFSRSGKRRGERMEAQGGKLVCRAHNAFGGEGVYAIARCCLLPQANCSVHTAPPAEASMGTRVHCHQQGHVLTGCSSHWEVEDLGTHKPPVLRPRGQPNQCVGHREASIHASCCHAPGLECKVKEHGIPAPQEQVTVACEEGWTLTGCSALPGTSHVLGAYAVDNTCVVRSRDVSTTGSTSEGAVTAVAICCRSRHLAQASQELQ
T1 sequence (Q8NBP7 31-152 partner limits assumed): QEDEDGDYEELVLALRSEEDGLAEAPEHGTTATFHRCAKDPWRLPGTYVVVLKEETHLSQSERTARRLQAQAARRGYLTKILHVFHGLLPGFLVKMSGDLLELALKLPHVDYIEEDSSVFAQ
Sequence of human PCSK9 (Q8NBP7 153-692): as the sequence (Q8NBP7 153-692) above

For the molecule `COc1ccc(C[C@@H]2NC(=O)[C@H]([C@@H](C)O)NC(=O)[C@@H]3[C@@H]4CCN3C(=O)[C@@H]3Cc5cn(c6ccc(F)cc56)CCCCCCN(Cc5ccc(cc5)CCNC(=O)[C@]5(C)CCCN5C2=O)C(=O)CCC(=O)N[C@@H](C)C(=O)N[C@H](CNC(=O)CCCCC[N+](C)(C)C)C(=O)N[C@@H](Cc2cccc(c2)CNC(=O)CO4)C(=O)N3)cc1.[Cl-]` [Compound 1], the “GM Maximum Percent Target Reduction From Baseline of Free PCSK9” value in data set [1] (Panel A 10 mg single dose) is on record as 93.32%; in [1] (setting [16]) it was 96.83%; in data set [1] (Panel A 200 mg single dose), 99.46%; in data set [1] (Panel B 35 mg single dose), 98.72%; in [1] (setting [17]), 99.43%; in [1] (Panel B 300 mg single dose), 99.68%. For the same molecule, the figures for the “GM Maximum Percent Target Reduction From Baseline of Free PCSK9” value in [1] (setting [18]), in data set [1] (Panel C 100 mg single dose) and in data set [1] (setting [19]) were 97.94%, 99.36% and 99.18%, respectively. In addition, the “Posterior Probability of True GM Free PCSK9 Maximum Percent Reduction ≥80%” value in data set [1] (Panel A 10 mg single dose), in [1] (setting [16]), in [1] (Panel A 200 mg single dose), in [1] (Panel B 35 mg single dose), in data set [1] (setting [17]) and in data set [1] (Panel B 300 mg single dose) was more than 0.99 in each case. Moreover, the “Posterior Probability of True GM Free PCSK9 Maximum Percent Reduction ≥80%” value in data set [1] (setting [18]), in data set [1] (Panel C 100 mg single dose) and in [1] (setting [19]) was more than 0.99 in each case. Moreover, in [2] (setting [20]), the “adverse events related to Compound 1 reported by the Investigator” value is “abdominal discomfort, diarrhea, dyspepsia, headache, and maculopapular rash”. In addition, the “deaths or severe adverse events (SAEs)” value in data set [2] (setting [20]) is “no death or severe adverse events”. Further, the tolerability entry in data set [2] (single oral doses up to 300 mg, healthy male volunteers) is given as “well tolerated”. For the same molecule, the “severity of treatment-related AEs” value in [2] (single oral doses, exception of one participant with severe back pain, not dose-related) was “mild/moderate”. The “adverse effects in GLP toxicity study” value in [3] and in data set [11] was “no adverse effects were observed” throughout. The GI absorption result in data set [4] and in data set [8] was “improved” throughout. Moreover, the “binding affinity against human PCSK9” value in data set [5] is on record as “picomolar”. The “mean reduction of LDL-C” value is “approximately 60%” in data set [6] (10 mg plus 180 mg sodium caprate, once daily for 14 days, statin background) and “approximately 64%” in data set [6] (10 mg plus 360 mg sodium caprate, once daily for 14 days, statin background). The “mean reduction of plasma LDL-C” value in data set [6] (20 mg plus 360 mg sodium caprate, once daily for 14 days, statin background) is on record as “approximately 62%”. Also, in data set [7], the “% LDL-C reduction from baseline” value is recorded as less than 50%. The “stability / impurity levels of amorphous salt” value in data set [9] is “higher impurity levels”. Besides, the “effect of food on plasma exposure” value is “negligible effect” in data set [10] (food consumed 30 minutes after the dose) and “lower plasma exposure” in data set [10] (food consumed 30 minutes before dosing, compared to fasted). Also, the “PK in the presence of Labrasol versus sodium caprate” value in [10] (single dose) was “similar”. In addition, in data set [10] (single dose, with vs without permeation enhancer), the “effect of permeation enhancers on absorption (Cmax and AUC0-24)” value is “improve absorption”. In addition, the “plasma exposure versus dose” value in [10] (single oral doses 10 to 300 mg) was “dose dependent increase”. The “PK of 10 mg plus 180 mg sodium caprate versus 10 mg plus 360 mg sodium caprate” value in [12] is listed as “similar”.
For the molecule `COc1ccc(C[C@@H]2NC(=O)[C@H]([C@@H](C)O)NC(=O)[C@@H]3[C@@H]4CCN3C(=O)[C@@H]3Cc5cn(c6ccc(F)cc56)CCCCCCN(Cc5ccc(cc5)CCNC(=O)[C@]5(C)CCCN5C2=O)C(=O)CCC(=O)N[C@@H](C)C(=O)N[C@H](CNC(=O)CCCCC[N+](C)(C)C)C(=O)N[C@@H](Cc2cccc(c2)CNC(=O)CO4)C(=O)N3)cc1` [Compound 3], the “stability / impurity levels of amorphous salt” value in [9] is recorded as “demonstrate stability”.
In the case of `COc1ccc(C[C@@H]2NC(=O)[C@H]([C@@H](C)O)NC(=O)[C@@H]3[C@@H]4CCN3C(=O)[C@@H]3Cc5cn(c6ccc(F)cc56)CCCCCCN(Cc5ccc(cc5)CCNC(=O)[C@]5(C)CCCN5C2=O)C(=O)CCC(=O)N[C@@H](C)C(=O)N[C@H](CNC(=O)CCCCC[N+](C)(C)C)C(=O)N[C@@H](Cc2cccc(c2)CNC(=O)CO4)C(=O)N3)cc1` [compound of formula (I)], the “mean maximum reduction of free plasma PCSK9 levels from baseline” value in data set [1] (single doses, all dose levels studied) was “more than 90%”. Moreover, the tolerability result in [2] (single and multiple oral doses in healthy volunteers) is “generally well tolerated”. Also, the “lowering of LDL-cholesterol in the blood from baseline” value in data set [6] (14 days of once daily oral dosing, background of moderate-to-high intensity statin therapy) is “approximately 65%”.
On to Inclisiran, for which the “reduction in LDL-C” value in data set [13] was 49-52%.
Turning to “Praluent: anti-PCSK9 monoclonal antibody”, the “reduction in LDL-C” value in data set [14] is given as 59%.

B1: Repatha: anti-PCSK9 monoclonal antibody (antibody, chains of the INN, looked up, V domains shown)
VH: EVQLVQSGAEVKKPGASVKVSCKASGYTLTSYGISWVRQAPGQGLEWMGWVSFYNGNTNYAQKLQGRGTMTTDPSTSTAYMELRSLRSDDTAVYYCARGYGMDVWGQGTTVTVSS
VL: ESALTQPASVSGSPGQSITISCTGTSSDVGGYNSVSWYQQHPGKAPKLMIYEVSNRPSGVSNRFSGSKSGNTASLTISGLQAEDEADYYCNSYTSTSMVFGGGTKLTVL
Turning to B1, the “reduction in LDL-C” value in [15] is given as 59%.
